Measurements reported in PMC7901699, “Challenging inflammatory process at molecular, cellular and in vivo levels via some new pyrazolyl thiazolones” (Journal of Enzyme Inhibition and Medicinal Chemistry, 2021).
pIC50: −log10 of the molar value.

Key:
[1] = molecular target: T1, human recombinant COX-2 (Homo sapiens, UniProt P35354); assay: In vitro COX-2 inhibition assay (colorimetric COX inhibitor screening kit, Cayman); format: biochemical
T1 construct: purchased Cayman Chemicals Inc. 560131
T1 sequence (P35354 18-604): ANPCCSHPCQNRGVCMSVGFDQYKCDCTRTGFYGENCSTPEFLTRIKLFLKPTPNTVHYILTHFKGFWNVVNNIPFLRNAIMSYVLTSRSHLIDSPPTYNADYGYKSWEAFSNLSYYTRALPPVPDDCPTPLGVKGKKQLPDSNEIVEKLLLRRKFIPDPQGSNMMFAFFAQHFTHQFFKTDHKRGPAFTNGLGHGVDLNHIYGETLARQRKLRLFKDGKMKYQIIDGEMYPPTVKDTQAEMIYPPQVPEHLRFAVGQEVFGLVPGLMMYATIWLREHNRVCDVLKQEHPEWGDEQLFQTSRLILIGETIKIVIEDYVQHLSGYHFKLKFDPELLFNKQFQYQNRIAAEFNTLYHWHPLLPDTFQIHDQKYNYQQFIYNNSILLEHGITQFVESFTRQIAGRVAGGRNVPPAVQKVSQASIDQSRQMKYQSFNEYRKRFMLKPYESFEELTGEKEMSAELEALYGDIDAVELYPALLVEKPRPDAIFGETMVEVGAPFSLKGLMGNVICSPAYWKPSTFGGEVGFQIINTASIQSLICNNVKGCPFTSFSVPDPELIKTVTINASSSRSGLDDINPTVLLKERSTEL
Experimental: Both assays were carried out in compliance with the manufacturer’s instructions and in accordance to prior studies[29]^,[33].
IC50 values (μM) and selectivity indices (SI) were calculated.

[2] = system: formalin-induced rat paw oedema; assay: Formalin-induced paw oedema test (acute inflammation model); format: in vivo, Wistar rats; settings: oral 5 mg/kg once daily for seven days; oedema 4 h after formalin; vs diclofenac sodium and celecoxib 5 mg/kg
Experimental: A freshly prepared 5% formalin solution (prepared from 37% formaldehyde and saline (Merck, Germany)) was used as a phlogistic agent. Test and reference compounds (5 mg/kg body weight) were dissolved in DMSO and given orally with gastric gavage once per day for seven consecutive days, whereas DMSO was administered to the control group. On the 8th day, the initial paw volume was determined by a Vernier calliper. Then, a subcutaneous injection of 40 μl formalin was introduced into the right hind paw of all groups under light ether anaesthesia. The paw volume was measured 4 h after the formalin injection and the oedema volume was calculated by the difference in paw volume before and 4 h after the formalin injection. The percentage inhibition of oedema (or % protection against inflammation) was calculated for each compound as previously reported[34]^,[35].

[3] = system: PMA/LPS-stimulated THP-1 (M1 macrophages); assay: Cytotoxicity assay on differentiated M1 macrophages (MTS); format: cell-based, human; settings: PMA 24 h, LPS 24 h, then compound 24 h; up to 100 μM
Experimental: To confirm that the previous observations were a consequence of interference of the compounds with the differentiation process rather than a reduction in monocyte viability, THP-1 monocytes were incubated with different concentrations of the compound for 30 h. No difference in cell viability was detected. Moreover, the cytotoxic effects of the drugs on differentiated macrophages were evaluated. Following the incubation of THP-1 cells with 25 nM PMA for 24 h and 100 ng/ml LPS for 24 h, the differentiated macrophages were treated with different concentrations of the compounds for 24 h. Cell viability was assessed using MTS colorimetric cell viability kit (Abcam, Cambridge, UK).

[4] = system: cotton pellet-induced granuloma; assay: Cotton pellet-induced granuloma assay (chronic inflammation model); settings: oral 5 mg/kg daily; pellets excised on 8th day; vs diclofenac sodium and celecoxib

Compound: COc1ccc(-c2nn(-c3ccccc3)cc2/C=C2\SC(N3CCCCC3)=NC2=O)cc1 [Compound 7, (Z)-5-((3-(4-methoxyphenyl)-1-phenyl-1H-pyrazol-4-yl)methylene)-2-(piperidin-1-yl)thiazol-4(5H)-one]
- SI (COX-1/ COX-2) ([1]; IC50 (COX-1)/IC50 (COX-2)): 114
- pIC50 ([1]; mean of three determinations): 7.05
- Inhibition of formalin-induced rat paw oedema (in words) [2]: as effective as either diclofenac or celecoxib
- M1 macrophage cell viability [3]: tended to slightly decrease
- Inhibition of cotton pellet granuloma weight (in words) [4]: only superior to celecoxib
